Entries after “also recorded” stand apart in the source; their conditions may differ.
Assays:
Pt3R cells [1] = assay: Western blotting in Pt3R cells; assay type: cell-based, human
Excerpt: The details of the procedure are described in our previous study. Primary antibodies, anti-CENPA, anti-CENPE, anti-CENPF and anti-CENPI antibodies, were purchased from abcam (Cambridge, UK); anti-CDK1 and anti-cyclin B1 antibodies were purchased from Santa Cruz Biotechnology, Inc. (Dallas, TX, USA); anti-EZH2 and anti-H3K27^me3 antibodies were purchased from GeneTex International Corporation (Hsinchu, Taiwan).
Furthermore, the impact of compound 7 treatment on centromere proteins (CENPs) was assessed. As such, CENPs are the main constituent proteins of the kinetochore, which are essential for cell division. CENP expression is elevated in GBM tissues and correlated with unfavourable overall survival in glioma patients.
(§1) Treatment concentration of MPT1A059 was indicated.

Pt3R cells [2] = assay: Cellular ROS assay (DHR, flow cytometry) in Pt3R cells; assay type: cell-based, human; conditions: 48 h, FIG. 7A
Excerpt: (§2) Dihydrorhodamine 123 (DHR; Thermo Fisher Scientific, Waltham, MA, USA) was used to label cellular ROS detected by flow cytometry, and the MitoSOX reagent (Thermo Fisher Scientific) was used to label mitochondrial ROS [55].
as §1

Pt3R cells [3] = assay: Cell viability / cytotoxicity of TMZ-resistant Pt3R cells (CCK8); assay type: cell-based, human
Pt3R cells [4] = assay: Proliferation of Pt3R cells after treatment (FIG. 4A); assay type: cell-based, human; conditions: 2 μM, 48 h
Pt3R cells [5] = assay: Cell cycle analysis (propidium iodide, flow cytometry); assay type: cell-based, human; conditions: 24 h, FIG. 5E
HSP90a = HSP90a (Homo sapiens, UniProt P07900); assay: In vitro HSP90 inhibition assay (Reaction Biology Corporation); assay type: biochemical
Protocol: The HSP90 inhibitory activity of the synthesized adduct was assessed by Reaction Biology Corporation, Malvern, PA (http://www.reactionbiology.com).
An in-vitro experiment was performed to assess the inhibitory effect of the synthesized adducts on the heat shock protein 90 (HSP90).

Pt3 cells = assay: Cellular ROS assay (DHR, flow cytometry) in Pt3 cells; assay type: cell-based, human; conditions: 48 h, FIG. 7A
Excerpt: as §2, §1

mitochondrial ROS = assay: MitoSOX assay of mitochondrial ROS; assay type: cell-based
Protocol: as §2
Thus, the ability of compound 7 to disturb redox homeostasis in TMZ-resistant cells and attain amplified therapeutic efficacy for GBM was evaluated. In both Pt3 and Pt3R cells, treatment with compound 7 for 48 h increased the ROS level (FIG. 7A). […] Moreover, it was also observed that compound 7 increased mitochondria-derived ROS.
as §1

Pt3R cells [6] = assay: Itraq-based proteomics analysis of Pt3R cells; assay type: cell-based, human; design: M059/DMSO, P4HA2 (O15460) / M059/DMSO, ATP6V1E1 (P36543) / M059/DMSO, HSPH1 (Q92598) / M059/DMSO, ACTB (P60709) / M059/DMSO, HSPB1 (P04792) / M059/DMSO, S100A10 (P60903) / M059/DMSO, LRPAP1 (P30533) / M059/DMSO, GIPC1 (O14908) / M059/DMSO, HSPE1 (P61604) / M059/DMSO, OLA1 (Q9NTK5) / M059/DMSO, EEF1B2 (P24534) / M059/DMSO, PSMD3 (O43242) / M059/DMSO, ZYX (Q15942) / M059/DMSO, HK1 (P19367) / M059/DMSO, ARF3 (P61204) / M059/DMSO, TWF1 (Q12792) / M059/DMSO, HSPA8 (P11142) / M059/DMSO, CTNNB1 (P35222) / M059/DMSO, EHD1 (Q9H4M9) / M059/DMSO, HSPA4 (P34932) / M059/DMSO, PSMD14 (O00487): dose or concentration left out as unconfirmed
Protocol: Pt3 GBM cells were isolated from a GBM patient as described in our previous study. Temozolomide (TMZ)-resistant phenotype of Pt3R cells had been validated previously. Pt3 cells were cultured in DMEM-supplemented with 10% fetal bovine serum, 100 μg/ml streptomycin and 100 μg/ml penicillin G. Pt3R cells were cultured in the presence of 100 μM of TMZ (MilliporeSigma Corporate, St. Louis, MO, USA).
RNA was isolated using the RNA extracting kit (Zymo Research, Irvine, CA, USA), and subjected to RNA-seq serviced by BIOTOOLS Co., Ltd (New Taipei City, Taiwan). Cell pellets were collected and subjected to proteomic analysis serviced by BIOTOOLS Co., Ltd. The comparison in gene expression between Pt3 and Pt3R was performed using RNA seq, and has been described previously.
Having identified the desired chemical probe 7, we assessed global protein expression using Itraq-based proteomics analysis to estimate whether 7 suppresses HSP90 (Pt3R cell lines). […] This observation is aligned with the results attained with geldanamycin treatment (a well-known HSP90 inhibitor) (Cheung, C. H. A.; Chen, H.-H.; Cheng, L.-T.; Lyu, K. W.; Kanwar, J. R.; Chang, J.-Y. TargetingHsp90 with small molecule inhibitors induces the over-expression of the anti-apoptotic molecule, survivin, in human A549, HONE-1 and HT-29 cancer cells. Mol. Cancer 2010, 9 (1), 1-11; Kuroyanagi, G.; Tokuda, H.; Fujita, K.; Kawabata, T.; Sakai, G.; Kim, W.; Hioki, T.; Tachi, J; Matsushima-Nishiwaki, R.; Otsuka, T. Upregulation of TGF-β-induced HSP27 by HSP90 inhibitors in osteoblasts. BMC Musculoskelet. Disord. 2022, 23 (1), 495) and confirms the HSP90-suppressive activity of compound 7 in GBM cells.

CCN(c1cc(-c2cccc(N(C)C(=O)c3cc(C(C)C)c(O)cc3O)c2)cc(C(=O)NCc2c(C)cc(C)[nH]c2=O)c1C)C1CCOCC1 [Compound 7, 3′-(2,4-dihydroxy-5-isopropyl-N-methylbenzamido)-N-((4,6-dimethyl-2-oxo-1,2-dihydropyridin-3-yl)methyl)-5-(ethyl(tetrahydro-2H-pyran-4-yl)amino)-4-methyl-[1,1′-biphenyl]-3-carboxamide]
CDK1 and cyclin B1 expression (Pt3R cells [1]; FIG. 5D): downregulated
EZH2 expression and EZH2-modulated H3K27 trimethylation (Pt3R cells [1]; FIG. 7B): inhibited
catalase, superoxide dismutase (SOD) 1, glutathione reductase and glutathione peroxidase (GPX) 1 proteins (Pt3R cells [1]; FIG. 7B): decreased
CENPs protein expression (Pt3R cells [1]; Pt3R cells, FIG. 5D): decreased
ROS level (Pt3R cells [2]): increased
cell growth / viability inhibitory effect in words (Pt3R cells [3]): the only ones to exert cell viability inhibitory potential; also recorded: the most effective against the Pt3R cell lines
IC50 (Pt3R cells [3]; read-out: Cell growth inhibitory effect IC50): 1010 nM
cell proliferation (Pt3R cells [4]): significantly inhibited cell proliferation
cell cycle (Pt3R cells [5]): induced cell cycle arrest at the M phase
HSP90 inhibitory potential in words (HSP90a): conferred HSP90 inhibitory potential
IC50 (HSP90a): 60.1 nM
ROS level (Pt3 cells): increased
mitochondria-derived ROS (mitochondrial ROS): increased
MitoSOX red signal representing ROS produced from mitochondria (mitochondrial ROS; FIG. 7C): remarkably enhanced
HSP family proteins (HSPA1A, HSPA8, HSP90AA1, HSPB1, HSPH1 and HSPA4) (Pt3R cells [6]; Pt3R cells): significantly increased
M059/DMSO, PA2G4 (Q9UQ80) (Pt3R cells [6]; decreased): 0.628
M059/DMSO, ACTB (P60709) (Pt3R cells [6]; increased): 1.657
M059/DMSO, ARF3 (P61204) (Pt3R cells [6]; increased): 1.944
M059/DMSO, ATP5IF1 (Q9UII2) (Pt3R cells [6]; increased): 1.646
M059/DMSO, ATP6V1E1 (P36543) (Pt3R cells [6]; increased): 1.599
M059/DMSO, CTNNB1 (P35222) (Pt3R cells [6]; increased): 1.550
M059/DMSO, EEF1B2 (P24534) (Pt3R cells [6]; increased): 1.792
M059/DMSO, EHD1 (Q9H4M9) (Pt3R cells [6]; increased): 1.555
M059/DMSO, GIPC1 (O14908) (Pt3R cells [6]; increased): 1.699
M059/DMSO, HK1 (P19367) (Pt3R cells [6]; increased): 1.921
M059/DMSO, HSP90AA1 (P07900) (Pt3R cells [6]; increased): 1.958
M059/DMSO, HSPA4 (P34932) (Pt3R cells [6]; increased): 1.561
M059/DMSO, HSPA8 (P11142) (Pt3R cells [6]; increased): 2.096
M059/DMSO, HSPB1 (P04792) (Pt3R cells [6]; increased): 1.661
M059/DMSO, HSPE1 (P61604) (Pt3R cells [6]; increased): 1.710
M059/DMSO, HSPH1 (Q92598) (Pt3R cells [6]; increased): 1.642
M059/DMSO, LRPAP1 (P30533) (Pt3R cells [6]; increased): 1.667
M059/DMSO, OLA1 (Q9NTK5) (Pt3R cells [6]; increased): 1.745
M059/DMSO, P4HA2 (O15460) (Pt3R cells [6]; increased): 1.588
M059/DMSO, PSMD3 (O43242) (Pt3R cells [6]; increased): 1.801
M059/DMSO, PSMD14 (O00487) (Pt3R cells [6]; increased): 1.579
M059/DMSO, S100A10 (P60903) (Pt3R cells [6]; increased): 1.664
M059/DMSO, TWF1 (Q12792) (Pt3R cells [6]; increased): 1.995
M059/DMSO, ZYX (Q15942) (Pt3R cells [6]; increased): 1.903

From patent publication US20260365637A1, “DUAL EZH2-HSP90 INHIBITORS” (TAIPEI MEDICAL UNIVERSITY, priority 2023, published 2026)
